Results taken from paper PMC10620772, “Design, synthesis, and biological evaluation of new pyrimidine-5-carbonitrile derivatives as novel anti-cancer, dual EGFR^WT/COX-2 inhibitors with docking studies” (RSC Advances, 2023).

Columns and labels:
Format in all cases: cell-based, human
IGROV1 = test: NCI60 antitumor screening; details: Homo sapiens, IGROV-1; 10 μM single dose; IGROV1 (ovarian cancer); read-out: growth inhibition percent (GI%)
NCI60 cell lines panel = test: NCI60 antitumor screening, full panel; details: Homo sapiens; 10 μM single dose; mean over NCI60 cell lines; read-out: Mean growth inhibition percent (GI%)
Outline: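 Single-concentration screen at 10 μM across the NCI60 panel (leukaemia, NSCLC, colon, CNS, melanoma, ovarian, renal, prostate, breast). Results are expressed as percent growth inhibition (GI%) of treated lines.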

HOP-92 = test: NCI60 antitumor screening; details: Homo sapiens; 10 μM single dose; HOP-92 (non-small cell lung cancer); read-out: growth inhibition percent (GI%)
TK-10 = test: NCI60 antitumor screening; details: Homo sapiens; 10 μM single dose; TK-10 (renal cancer); read-out: growth inhibition percent (GI%)
KM12 = test: NCI60 antitumor screening; details: Homo sapiens; 10 μM single dose; KM12 (colon cancer); read-out: growth inhibition percent (GI%)
UACC-257 = test: NCI60 antitumor screening; details: Homo sapiens; 10 μM single dose; UACC-257 (melanoma); read-out: growth inhibition percent (GI%)
NCI-H322M = test: NCI60 antitumor screening; details: Homo sapiens; 10 μM single dose; NCI-H322M (non-small cell lung cancer); read-out: growth inhibition percent (GI%)
MALME-3M = test: NCI60 antitumor screening; details: Homo sapiens; 10 μM single dose; MALME-3M (melanoma); read-out: growth inhibition percent (GI%)
NCI-H23 = test: NCI60 antitumor screening; details: Homo sapiens; 10 μM single dose; NCI-H23 (non-small cell lung cancer); read-out: growth inhibition percent (GI%)
UACC-62 = test: NCI60 antitumor screening; details: Homo sapiens; 10 μM single dose; UACC-62 (melanoma); read-out: growth inhibition percent (GI%)
SN12C = test: NCI60 antitumor screening; details: Homo sapiens; 10 μM single dose; SN12C (renal cancer); read-out: growth inhibition percent (GI%)
OVCAR-8 = test: NCI60 antitumor screening; details: Homo sapiens; 10 μM single dose; OVCAR-8 (ovarian cancer); read-out: growth inhibition percent (GI%)
NCI-H522 = test: NCI60 antitumor screening; details: Homo sapiens; 10 μM single dose; NCI-H522 (non-small cell lung cancer); read-out: growth inhibition percent (GI%)
HCT-15 = test: NCI60 antitumor screening; details: Homo sapiens; 10 μM single dose; HCT-15 (colon cancer); read-out: growth inhibition percent (GI%)
SW-620 = test: NCI60 antitumor screening; details: Homo sapiens; 10 μM single dose; SW-620 (colon cancer); read-out: growth inhibition percent (GI%)
UO-31 = test: NCI60 antitumor screening; details: Homo sapiens; 10 μM single dose; UO-31 (renal cancer); read-out: growth inhibition percent (GI%)
SK-MEL-2 = test: NCI60 antitumor screening; details: Homo sapiens; 10 μM single dose; SK-MEL-2 (melanoma); read-out: growth inhibition percent (GI%)
HOP-62 = test: NCI60 antitumor screening; details: Homo sapiens; 10 μM single dose; HOP-62 (non-small cell lung cancer); read-out: growth inhibition percent (GI%)
SNB-75 = test: NCI60 antitumor screening; details: Homo sapiens; 10 μM single dose; SNB-75 (CNS cancer); read-out: growth inhibition percent (GI%)
SNB-19 = test: NCI60 antitumor screening; details: Homo sapiens; 10 μM single dose; SNB-19 (CNS cancer); read-out: growth inhibition percent (GI%)
MCF7 = test: NCI60 antitumor screening; details: Homo sapiens; 10 μM single dose; MCF7 (breast cancer); read-out: growth inhibition percent (GI%)
OVCAR-5 = test: NCI60 antitumor screening; details: Homo sapiens; 10 μM single dose; OVCAR-5 (ovarian cancer); read-out: growth inhibition percent (GI%)
T-47D = test: NCI60 antitumor screening; details: Homo sapiens, T47D; 10 μM single dose; T-47D (breast cancer); read-out: growth inhibition percent (GI%)
EKVX = test: NCI60 antitumor screening; details: Homo sapiens; 10 μM single dose; EKVX (non-small cell lung cancer); read-out: growth inhibition percent (GI%)
SK-OV-3 = test: NCI60 antitumor screening; details: Homo sapiens; 10 μM single dose; SK-OV-3 (ovarian cancer); read-out: growth inhibition percent (GI%)
DU-145 = test: NCI60 antitumor screening; details: Homo sapiens, DU-145; read-out: growth inhibition percent (GI%)
NCI-H226 = test: NCI60 antitumor screening; details: Homo sapiens; 10 μM single dose; NCI-H226 (non-small cell lung cancer); read-out: growth inhibition percent (GI%)
CAKI-1 = test: NCI60 antitumor screening; details: Homo sapiens; 10 μM single dose; CAKI-1 (renal cancer); read-out: growth inhibition percent (GI%)
ACHN = test: NCI60 antitumor screening; details: Homo sapiens; 10 μM single dose; ACHN (renal cancer); read-out: growth inhibition percent (GI%)
RXF 393 = test: NCI60 antitumor screening; details: Homo sapiens; 10 μM single dose; RXF 393 (renal cancer); read-out: growth inhibition percent (GI%)
COLO 205 = test: NCI60 antitumor screening; details: Homo sapiens; 10 μM single dose; COLO 205 (colon cancer); read-out: growth inhibition percent (GI%)
RPMI-8226 = test: NCI60 antitumor screening; details: Homo sapiens; 10 μM single dose; RPMI-8226 (leukaemia); read-out: growth inhibition percent (GI%)
HS 578T = test: NCI60 antitumor screening; details: Homo sapiens; 10 μM single dose; HS 578T (breast cancer); read-out: growth inhibition percent (GI%)
HCC-2998 = test: NCI60 antitumor screening; details: Homo sapiens; 10 μM single dose; HCC-2998 (colon cancer); read-out: growth inhibition percent (GI%)

N#Cc1c(-c2ccc(F)cc2)nc(SCc2ccc([N+](=O)[O-])cc2)nc1N1CCN(c2ccccc2)CC1 [4o, 4-(4-Fluorophenyl)-2-((4-nitrobenzyl)thio)-6-(4-phenylpiperazin-1-yl)pyrimidine-5-carbonitrile]
inhibition at 10 µM (IGROV1): < 10%
inhibition at 10 µM (NCI60 cell lines panel): < 10%
inhibition at 10 µM (HOP-92): < 10%
inhibition at 10 µM (TK-10): < 10%
inhibition at 10 µM (KM12): < 10%
inhibition at 10 µM (UACC-257): < 10%
inhibition at 10 µM (NCI-H322M): < 10%
inhibition at 10 µM (MALME-3M): < 10%
inhibition at 10 µM (NCI-H23): < 10%
inhibition at 10 µM (UACC-62): 18.1%
inhibition at 10 µM (SN12C): < 10%
inhibition at 10 µM (OVCAR-8): < 10%
inhibition at 10 µM (NCI-H522): < 10%
inhibition at 10 µM (HCT-15): < 10%
inhibition at 10 µM (SW-620): < 10%
inhibition at 10 µM (UO-31): < 10%
inhibition at 10 µM (SK-MEL-2): < 10%
inhibition at 10 µM (HOP-62): < 10%
inhibition at 10 µM (SNB-75): 12.4%
inhibition at 10 µM (SNB-19): < 10%
inhibition at 10 µM (MCF7): 14.8%
inhibition at 10 µM (OVCAR-5): < 10%
inhibition at 10 µM (T-47D): < 10%
inhibition at 10 µM (EKVX): 13.9%
inhibition at 10 µM (SK-OV-3): < 10%
inhibition at 10 µM (DU-145): < 10%
inhibition at 10 µM (NCI-H226): < 10%
inhibition at 10 µM (CAKI-1): 13.7%
inhibition at 10 µM (ACHN): < 10%
inhibition at 10 µM (RXF 393): < 10%
inhibition at 10 µM (COLO 205): < 10%
inhibition at 10 µM (RPMI-8226): 15.3%
inhibition at 10 µM (HS 578T): < 10%
inhibition at 10 µM (HCC-2998): < 10%
